Data: US20260223850A1, “SUBSTITUTED PYRROLIDONE COMPOUND, PREPARATION METHOD THEREFOR, COMPOSITION AND APPLICATION THEREOF” (QINGDAO KINGAGROOT CHEMICAL COMPOUND CO., LTD., priority 2023, published 2026)

Legend:
Test in all cases: Seedling stage sealing experiment for water-seeding
Assay type in all cases: in vivo
[1] = tested on: Echinochloa crusgalli; details: 120 g a.i./ha, seedling stage sealing, 15 days, fresh weight control rate
[2] = tested on: Echinochloa phyllopogon; details: 120 g a.i./ha, seedling stage sealing, 15 days, fresh weight control rate
Procedure, shortened: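 Seeds broadcast on soil in nutrition bowls, covered, kept moist in a water-filled box; compound in acetone diluted with water and spray-tower applied at 120, 60, 30 and 15 g a.i./ha, triplicate. Scored after 15 days in greenhouse on a 0–9 scale of fresh-weight growth control, averaged.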

[3] = tested on: Leptochloa chinensis; details: 120 g a.i./ha, 15 days, fresh weight control rate
Source text: (1) Seedling Stage Sealing Experiment for Water-Seeding:
The activity level criteria for plant damage (i.e., growth control rate) are as follows: • Level 9: completely dead; • Level 8: growth control rate greater than or equal to 90% and less than 100%; • Level 7: growth control rate greater than or equal to 80% and less than 90%; • Level 6: growth control rate greater than or equal to 70% and less than 80%; • Level 5: growth control rate greater than or equal to 50% and less than 70%; • Level 4: growth control rate greater than or equal to 30% and less than 50%; • Level 3: growth control rate greater than or equal to 20% and less than 30%; • Level 2: growth control rate greater than or equal to 10% and less than 20%; • Level 1: growth control rate less than 10%; • Level 0: no effect.
The above growth control rates are fresh weight control rates.
Echinochloa phyllopogon, Digitaria sanguinalis, Huaidao (rice cultivar), etc. were broadcasted on the surface of nutrition bowls filled with soil and fully covered by soil. The foregoing well-prepared nutrition bowls were then placed in a cultivation box with water filled to a suitable height to keep the soil in the nutrition bowls moist. A test compound of the present invention was individually dissolved with acetone, then diluted into solution of a certain concentration using a certain amount of water, and sprayed using a spray tower. The plants were placed on a greenhouse seedbed and cultured for 15 days, and the experimental results were then collected. The compound was applied at 120, 60, 30 and 15 g a.i./ha in triplicate, and the results were averaged.

Structure (SMILES): Cc1cccc([C@H]2CN(C)C(=O)[C@@H]2C(=O)Nc2cnn(C3CC3)c2Cl)c1 [128′]
- Echinochloa crusgalli activity level (growth control rate) [1]: 9
- Echinochloa phyllopogon activity level (growth control rate) [2]: 8 (Level 8: growth control rate greater than or equal to 90% and less than 100%)
- Leptochloa chinensis activity level (growth control rate) [3]: 9

Structure (SMILES): Cc1cccc([C@H]2CN(C)C(=O)[C@@H]2C(=O)Nc2cnn(CC(F)(F)F)c2Cl)c1 [129′]
- Echinochloa crusgalli activity level (growth control rate) [1]: 9
- Echinochloa phyllopogon activity level (growth control rate) [2]: 8 (Level 8: growth control rate greater than or equal to 90% and less than 100%)
- Leptochloa chinensis activity level (growth control rate) [3]: 9

Structure (SMILES): Cc1cccc([C@H]2CN(C)C(=O)[C@@H]2C(=O)Nc2cnn(C(C)C)c2Cl)c1 [130′]
- Echinochloa crusgalli activity level (growth control rate) [1]: 9
- Echinochloa phyllopogon activity level (growth control rate) [2]: 9
- Leptochloa chinensis activity level (growth control rate) [3]: 9

Structure (SMILES): CCc1c(NC(=O)[C@H]2C(=O)N(C)C[C@@H]2c2cccc(C)c2)cnn1C [135′]
- Echinochloa crusgalli activity level (growth control rate) [1]: 9
- Echinochloa phyllopogon activity level (growth control rate) [2]: 7 (Level 7: growth control rate greater than or equal to 80% and less than 90%)
- Leptochloa chinensis activity level (growth control rate) [3]: 9

Structure (SMILES): Cc1cccc([C@H]2CN(C)C(=O)[C@@H]2C(=O)Nc2c(O)nn(C)c2F)c1 [147′]
- Echinochloa crusgalli activity level (growth control rate) [1]: 9
- Echinochloa phyllopogon activity level (growth control rate) [2]: 8 (Level 8: growth control rate greater than or equal to 90% and less than 100%)
- Leptochloa chinensis activity level (growth control rate) [3]: 9

Structure (SMILES): CN1C[C@H](c2cccc(C3CCCC3)c2)[C@@H](C(=O)Nc2cnn(C)c2Cl)C1=O [152′]
- Echinochloa crusgalli activity level (growth control rate) [1]: 9
- Echinochloa phyllopogon activity level (growth control rate) [2]: 8 (Level 8: growth control rate greater than or equal to 90% and less than 100%)
- Leptochloa chinensis activity level (growth control rate) [3]: 9

Structure (SMILES): CN1C[C@H](c2cccc(C(F)F)c2)[C@@H](C(=O)Nc2cnn(C)c2Cl)C1=O [154′]
- Echinochloa crusgalli activity level (growth control rate) [1]: 9
- Echinochloa phyllopogon activity level (growth control rate) [2]: 8 (Level 8: growth control rate greater than or equal to 90% and less than 100%)
- Leptochloa chinensis activity level (growth control rate) [3]: 9

Structure (SMILES): CN1C[C@H](c2cccc(C(F)(F)F)c2)[C@@H](C(=O)Nc2cnn(C(F)F)c2Cl)C1=O [158′]
- Echinochloa crusgalli activity level (growth control rate) [1]: 9
- Echinochloa phyllopogon activity level (growth control rate) [2]: 8 (Level 8: growth control rate greater than or equal to 90% and less than 100%)
- Leptochloa chinensis activity level (growth control rate) [3]: 9

Structure (SMILES): CN1C[C@H](c2cccc(C(F)(F)F)c2)[C@@H](C(=O)Nc2cnn(CCCl)c2Cl)C1=O [160′]
- Echinochloa crusgalli activity level (growth control rate) [1]: 6 (Level 6: growth control rate greater than or equal to 70% and less than 80%)
- Echinochloa phyllopogon activity level (growth control rate) [2]: 5 (Level 5: growth control rate greater than or equal to 50% and less than 70%)
- Leptochloa chinensis activity level (growth control rate) [3]: 9

Structure (SMILES): CN1C[C@H](c2cccc(C(F)(F)F)c2)[C@@H](C(=O)Nc2cnn(CC(F)(F)F)c2Cl)C1=O [161′]
- Echinochloa crusgalli activity level (growth control rate) [1]: 9
- Echinochloa phyllopogon activity level (growth control rate) [2]: 8 (Level 8: growth control rate greater than or equal to 90% and less than 100%)
- Leptochloa chinensis activity level (growth control rate) [3]: 9

Structure (SMILES): CN1C[C@H](c2cccc(C(F)(F)F)c2)[C@@H](C(=O)Nc2cnn(C)c2I)C1=O [186′]
- Echinochloa crusgalli activity level (growth control rate) [1]: 9
- Echinochloa phyllopogon activity level (growth control rate) [2]: 7 (Level 7: growth control rate greater than or equal to 80% and less than 90%)
- Leptochloa chinensis activity level (growth control rate) [3]: 9

Structure (SMILES): CCc1c(NC(=O)[C@H]2C(=O)N(C)C[C@@H]2c2cccc(C(F)(F)F)c2)cnn1C [190′]
- Echinochloa crusgalli activity level (growth control rate) [1]: 9
- Echinochloa phyllopogon activity level (growth control rate) [2]: 8 (Level 8: growth control rate greater than or equal to 90% and less than 100%)
- Leptochloa chinensis activity level (growth control rate) [3]: 9

Structure (SMILES): COCc1c(NC(=O)[C@H]2C(=O)N(C)C[C@@H]2c2cccc(C(F)(F)F)c2)cnn1C [193′]
- Echinochloa crusgalli activity level (growth control rate) [1]: 9
- Echinochloa phyllopogon activity level (growth control rate) [2]: 7 (Level 7: growth control rate greater than or equal to 80% and less than 90%)
- Leptochloa chinensis activity level (growth control rate) [3]: 9
